Measured values taken from the CheMixHub ionic liquid set.

Test: xn = mol fraction of the nth substance listed
Settings: 101 kPa

CC[N+](C)(CC)CCOC.F[B-](F)(F)F + O=C1CCCO1
Settings | electrical conductivity [S/m] | viscosity [mPa·s]
288.15 K, x1 = 0.1006 | 0.841 | 6.82
288.15 K, x1 = 0.2004 | 0.851 | 9.23
288.15 K, x1 = 0.3005 | 0.691 | 16.02
288.15 K, x1 = 0.4002 | 0.57 | 23.81
288.15 K, x1 = 0.4999 | 0.424 | 63.2
288.15 K, x1 = 0.6001 | 0.29 | 103.1
288.15 K, x1 = 0.6998 | 0.215 | 157.6
288.15 K, x1 = 0.7999 | 0.164 | 213
293.15 K, x1 = 0.1006 | 0.951 | 5.32
293.15 K, x1 = 0.2004 | 0.976 | 7.92
293.15 K, x1 = 0.3005 | 0.817 | 13.79
293.15 K, x1 = 0.4002 | 0.688 | 20.66
293.15 K, x1 = 0.4999 | 0.522 | 49.1
293.15 K, x1 = 0.6001 | 0.377 | 78.1
293.15 K, x1 = 0.6998 | 0.298 | 116.8
293.15 K, x1 = 0.7999 | 0.227 | 155.5
298.15 K, x1 = 0.1006 | 1.06 | 4.185
298.15 K, x1 = 0.2004 | 1.114 | 6.94
298.15 K, x1 = 0.3005 | 0.956 | 11.91
298.15 K, x1 = 0.4002 | 0.811 | 17.89
298.15 K, x1 = 0.4999 | 0.641 | 38.49
298.15 K, x1 = 0.6001 | 0.472 | 59.7
298.15 K, x1 = 0.6998 | 0.389 | 86.9
303.15 K, x1 = 0.1006 | 1.18 | 3.324
303.15 K, x1 = 0.2004 | 1.26 | 6.02
303.15 K, x1 = 0.3005 | 1.113 | 10.17
303.15 K, x1 = 0.4002 | 0.971 | 15.32
303.15 K, x1 = 0.4999 | 0.783 | 30.01
303.15 K, x1 = 0.6001 | 0.596 | 45.3
303.15 K, x1 = 0.6998 | 0.503 | 64.6
308.15 K, x1 = 0.1006 | 1.28 | 2.671
308.15 K, x1 = 0.2004 | 1.433 | 5.26
308.15 K, x1 = 0.3005 | 1.28 | 8.82
308.15 K, x1 = 0.4002 | 1.126 | 13.39
308.15 K, x1 = 0.4999 | 0.927 | 24.01
308.15 K, x1 = 0.6001 | 0.725 | 35.23
308.15 K, x1 = 0.6998 | 0.615 | 48.3
313.15 K, x1 = 0.1006 | 1.416 | 2.197
313.15 K, x1 = 0.2004 | 1.606 | 4.633
313.15 K, x1 = 0.3005 | 1.47 | 7.63
313.15 K, x1 = 0.4002 | 1.29 | 11.62
313.15 K, x1 = 0.4999 | 1.09 | 19.44
313.15 K, x1 = 0.6001 | 0.868 | 27.85
313.15 K, x1 = 0.6998 | 0.745 | 36.75
318.15 K, x1 = 0.1006 | 1.55 | 1.855
318.15 K, x1 = 0.2004 | 1.78 | 4.085
318.15 K, x1 = 0.3005 | 1.65 | 6.55
318.15 K, x1 = 0.4002 | 1.48 | 10.01
318.15 K, x1 = 0.4999 | 1.27 | 15.67
318.15 K, x1 = 0.6001 | 1.04 | 21.94
318.15 K, x1 = 0.6998 | 0.878 | 27.84
323.15 K, x1 = 0.1006 | 1.69 | 1.577
323.15 K, x1 = 0.2004 | 1.97 | 3.603
323.15 K, x1 = 0.3005 | 1.839 | 5.68
323.15 K, x1 = 0.4002 | 1.68 | 8.77
323.15 K, x1 = 0.4999 | 1.46 | 12.42
323.15 K, x1 = 0.6001 | 1.22 | 16.68
323.15 K, x1 = 0.6998 | 1.02 | 20.94
328.15 K, x1 = 0.1006 | 1.827 | 1.35
328.15 K, x1 = 0.2004 | 2.15 | 3.183
328.15 K, x1 = 0.3005 | 2.05 | 4.95
328.15 K, x1 = 0.4002 | 1.89 | 7.71
328.15 K, x1 = 0.4999 | 1.66 | 10.11
328.15 K, x1 = 0.6001 | 1.41 | 13.1
328.15 K, x1 = 0.6998 | 1.21 | 15.79
333.15 K, x1 = 0.1006 | 1.96 | 1.142
333.15 K, x1 = 0.2004 | 2.34 | 2.827
333.15 K, x1 = 0.3005 | 2.25 | 4.282
333.15 K, x1 = 0.4002 | 2.1 | 6.74
333.15 K, x1 = 0.4999 | 1.86 | 8.58
333.15 K, x1 = 0.6001 | 1.63 | 11.02
333.15 K, x1 = 0.6998 | 1.404 | 12.64
338.15 K, x1 = 0.1006 | 2.08 | 0.992
338.15 K, x1 = 0.2004 | 2.53 | 2.498
338.15 K, x1 = 0.3005 | 2.47 | 3.693
338.15 K, x1 = 0.4002 | 2.32 | 5.89
338.15 K, x1 = 0.4999 | 2.09 | 6.92
338.15 K, x1 = 0.6001 | 1.86 | 8.55
338.15 K, x1 = 0.6998 | 1.607 | 9.17
343.15 K, x1 = 0.1006 | 2.21 | 0.876
343.15 K, x1 = 0.2004 | 2.73 | 2.235
343.15 K, x1 = 0.3005 | 2.68 | 3.194
343.15 K, x1 = 0.4002 | 2.54 | 5.15
343.15 K, x1 = 0.4999 | 2.29 | 5.85
343.15 K, x1 = 0.6001 | 2.1 | 7.16
343.15 K, x1 = 0.6998 | 1.85 | 6.87
348.15 K, x1 = 0.1006 | 2.35 | 0.795
348.15 K, x1 = 0.2004 | 2.92 | 2.001
348.15 K, x1 = 0.3005 | 2.91 | 2.754
348.15 K, x1 = 0.4002 | 2.79 | 4.507
348.15 K, x1 = 0.4999 | 2.56 | 4.69
348.15 K, x1 = 0.6001 | 2.35 | 5.48
348.15 K, x1 = 0.6998 | 2.08 | 5.52
353.15 K, x1 = 0.1006 | 2.48 | 0.716
353.15 K, x1 = 0.2004 | 3.14 | 1.753
353.15 K, x1 = 0.3005 | 3.11 | 2.391
353.15 K, x1 = 0.4002 | 3.04 | 4.028
353.15 K, x1 = 0.4999 | 2.82 | 3.864
353.15 K, x1 = 0.6001 | 2.62 | 4.301
353.15 K, x1 = 0.6998 | 2.36 | 3.983
